Measurements taken from US20170247326A1, “Substituted Pyrrolidine Carboxamide Compounds” (EPIZYME, INC., priority 2014, published 2017).

Target: T1, SMYD2 (Homo sapiens, UniProt Q9NRG4)
T1 construct: Full length SMYD2 (NP_064582.2) was cloned; His6 (N, cleaved yes); FLAG (N); made in house; host or cells: Sf9 insect cells
Assay: SMYD2 biochemical assay (3H-SAM, biotinylated peptide substrate, Flashplate)
Conditions: Table 1; average of n = 1 to n = 50; read-out: SMYD2 Biochem IC50
Method in brief: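 Full-length His/FLAG-tagged SMYD2 (tag removed, Sf9-expressed) at 1.5 nM was preincubated with compound for 30 min at room temperature in Bicine pH 7.6 buffer with 2% DMSO. Reaction used 10 nM 3H-SAM and 60 nM biotinylated peptide, stopped with 600 uM cold SAM. Streptavidin-captured 3H-peptide counted; IC50 from 3- or 4-parameter fit.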

T1 sequence (Q9NRG4 whole entry): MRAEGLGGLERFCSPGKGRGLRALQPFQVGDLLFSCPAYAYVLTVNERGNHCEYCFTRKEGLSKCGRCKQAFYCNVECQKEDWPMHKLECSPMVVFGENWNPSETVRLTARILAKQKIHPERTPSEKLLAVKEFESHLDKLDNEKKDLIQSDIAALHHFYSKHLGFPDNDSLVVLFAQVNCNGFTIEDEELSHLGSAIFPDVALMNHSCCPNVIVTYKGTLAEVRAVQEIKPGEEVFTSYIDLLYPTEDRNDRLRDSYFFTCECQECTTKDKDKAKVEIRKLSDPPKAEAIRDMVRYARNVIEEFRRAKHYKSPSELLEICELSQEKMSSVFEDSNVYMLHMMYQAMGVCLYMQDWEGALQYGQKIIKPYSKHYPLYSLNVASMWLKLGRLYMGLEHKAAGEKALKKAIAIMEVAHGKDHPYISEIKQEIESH

| Molecule | IC50 [µM] |
| --- | --- |
| CC1Oc2ccc(C(=O)N[C@@H]3CN(C4CC4)C[C@@H]3C)cc2NC1=O (mixture of isomers) [compound 8, (±)-cis-N-(1-cyclopropyl-4-methylpyrrolidin-3-yl)-2-methyl-3-oxo-3,4-dihydro-2H-benzo[b][1,4]oxazine-6-carboxamide] | > 50 |
| CCc1cc(C(=O)N[C@H]2CN(C3CC3)C[C@@H]2C)ns1 (racemic) [compound 11, (±)-trans-N-(1-cyclopropyl-4-methylpyrrolidin-3-yl)-5-ethylisothiazole-3-carboxamide] | > 50 |
| C[C@H]1CN(C2CC2)C[C@H]1NC(=O)c1ccc2[nH]c(=O)oc2c1 (racemic) [compound 14, (±)-cis-N-(1-cyclopropyl-4-methylpyrrolidin-3-yl)-2-oxo-2,3-dihydrobenzo[d]oxazole-6-carboxamide] | > 50 |

Same assay, conditions: Table 3; average of n = 1 to n = 50; read-out: SMYD2 Biochem IC50

| Molecule | IC50 [µM] |
| --- | --- |
| CC(C)N1C[C@H](C)[C@H](NC(=O)c2cn(C3CC3)nn2)C1 (racemic) [compound 27, (±)-cis-1-cyclopropyl-N-[4-methyl-1-(propan-2-yl)pyrrolidin-3-yl]-1H-1,2,3-triazole-4-carboxamide] | 0.781 |
| CC(C)N1C[C@H](C)[C@H](NC(=O)c2ccc(N3CCCC3)cc2)C1 (racemic) [compound 30, (±)-cis-N-[4-methyl-1-(propan-2-yl)pyrrolidin-3-yl]-4-(pyrrolidin-1-yl)benzamide] | > 50 |
| CC(C)N1C[C@H](C)[C@H](NC(=O)c2nccc(C3CC3)n2)C1 (racemic) [compound 60, (±)-cis-4-cyclopropyl-N-[4-methyl-1-(propan-2-yl)pyrrolidin-3-yl]pyrimidine-2-carboxamide] | > 50 |
| CC(C)N1C[C@@H](C)[C@H](NC(=O)c2nnc(C3CC3)o2)C1 (racemic) [compound 49, (±)-trans-5-cyclopropyl-N-[4-methyl-1-(propan-2-yl)pyrrolidin-3-yl]-1,3,4-oxadiazole-2-carboxamide] | 26.8 |
| CC(C)N1C[C@H](C)[C@H](NC(=O)c2nnc(C3CC3)s2)C1 (racemic) [compound 41, (±)-cis-5-cyclopropyl-N-[4-methyl-1-(propan-2-yl)pyrrolidin-3-yl]-1,3,4-thiadiazole-2-carboxamide] | 2.68 |
| CC(C)N1C[C@@H](C)[C@H](NC(=O)c2ccc3c(c2)OCC(=O)N3)C1 (racemic) [compound 28, (±)-trans-N-[4-methyl-1-(propan-2-yl)pyrrolidin-3-yl]-3-oxo-3,4-dihydro-2H-1,4-benzoxazine-7-carboxamide] | > 50 |
| (±)-cis-N-(1-((2-aminoethyl)sulfonyl)-4-methylpyrrolidin-3-yl)-5-cyclopmpylpyridazine-3-carboxamide [compound 113] | > 50 |
| CC(C)N1C[C@@H](C)[C@H](NC(=O)c2nnc(C3CC3)s2)C1 (racemic) [compound 48, (±)-trans-5-cyclopropyl-N-[4-methyl-1-(propan-2-yl)pyrrolidin-3-yl]-1,3,4-thiadiazole-2-carboxamide] | 39.5 |
| CC(C)N1C[C@H](C)[C@H](NC(=O)c2ccc3c(c2)OCC(=O)N3)C1 (racemic) [compound 29, (±)-cis-N-[4-methyl-1-(propan-2-yl)pyrrolidin-3-yl]-3-oxo-3,4-dihydro-2H-1,4-benzoxazine-7-carboxamide] | > 50 |
| CC1CN(C(C)C)CC1NC(=O)c1ccn(C(C)C)n1 (racemic) [compound 44, (±)-trans-N-[4-methyl-1-(propan-2-yl)pyrrolidin-3-yl]-1-(propan-2-yl)-1H-pyrazole-3-carboxamide] | > 50 |
| CC(C)N1C[C@H](C)[C@H](NC(=O)CCN2CCCC2)C1 (racemic) [compound 56, (±)-cis-N-[4-methyl-1-(propan-2-yl)pyrrolidin-3-yl]-3-(pyrrolidin-1-yl)propanamide] | > 50 |
| CC(C)N1C[C@@H](C)[C@@H](NC(=O)c2cnn(C(C)C)c2)C1 (racemic) [compound 46, (±)-cis-N-[4-methyl-1-(propan-2-yl)pyrrolidin-3-yl]-1-(propan-2-yl)-1H-pyrazole-4-carboxamide] | > 50 |
| CC(C)N1C[C@H](NC(=O)c2ccc3c(c2)NC(=O)CO3)[C@@H](C)C1 (racemic) [compound 37, (±)-trans-N-[4-methyl-1-(propan-2-yl)pyrrolidin-3-yl]-3-oxo-3,4-dihydro-2H-1,4-benzoxazine-6-carboxamide] | > 50 |

Next, values leading:

| IC50 [µM] | Molecule |
| --- | --- |
| > 50 | CC(C)N1C[C@H](C)[C@H](NC(=O)c2coc(C3CC3)n2)C1 (racemic) [compound 63, (±)-cis-2-cyclopropyl-N-[4-methyl-1-(propan-2-yl)pyrrolidin-3-yl]-1,3-oxazole-4-carboxamide] |
| 13.6 | CC(C)N1C[C@H](C)[C@H](NC(=O)c2cc(C3CC3)c[nH]c2=O)C1 (racemic) [compound 82, (±)-cis-5-cyclopropyl-N-[4-methyl-1-(propan-2-yl)pyrrolidin-3-yl]-2-oxo-1,2-dihydropyridine-3-carboxamide] |
| 2.09 | CC(C)N1C[C@H](C)[C@H](NC(=O)c2cc(C3CC3)cnn2)C1 (stereo in doubt) [compound 98, rel-5-cyclopropyl-N-[(3S,4S)-4-methyl-1-(propan-2-yl)pyrrolidin-3-yl]pyridazine-3-carboxamide] |
| 12 | CC(C)N1C[C@@H](C)[C@H](NC(=O)c2cc(C3CC3)cnn2)C1 (racemic) [compound 111, (±)-trans-5-cyclopropyl-N-[4-methyl-1-(propan-2-yl)pyrrolidin-3-yl]pyridazine-3-carboxamide] |
| > 50 | CC(C)N1C[C@@H](C)[C@H](NC(=O)c2cc(C3CC3)[nH]n2)C1 (racemic) [compound 62, (±)-trans-5-cyclopropyl-N-[4-methyl-1-(propan-2-yl)pyrrolidin-3-yl]-1H-pyrazole-3-carboxamide] |
| > 50 | CC(C)N1C[C@@H](C)[C@@H](NC(=O)c2cc(C3CC3)n(C)n2)C1 (racemic) [compound 89, (±)-cis-5-cyclopropyl-1-methyl-N-[4-methyl-1-(propan-2-yl)pyrrolidin-3-yl]-1H-pyrazole-3-carboxamide] |
| > 50 | CC(C)N1C[C@@H](C)[C@@H](NC(=O)c2nc(C3CC3)ns2)C1 (racemic) [compound 86, (±)-cis-3-cyclopropyl-N-[4-methyl-1-(propan-2-yl)pyrrolidin-3-yl]-1,2,4-thiadiazole-5-carboxamide] |
| 0.776 | CC(C)N1C[C@H](C)[C@H](NC(=O)c2cc(C3CC3)sn2)C1 (racemic) [compound 93, (±)-cis-5-cyclopropyl-N-[4-methyl-1-(propan-2-yl)pyrrolidin-3-yl]-1,2-thiazole-3-carboxamide] |
| 11.5 | CC(C)N1CC(NC(=O)c2cc(C3CC3)cnn2)CC1C (centres unmarked) [compound 120, 5-cyclopropyl-N-(1-isopropyl-5-methylpyrrolidin-3-yl)pyridazine-3-carboxamide] |
| > 50 | CC(C)c1coc(C(=O)N[C@@H]2CN(C(C)C)C[C@@H]2C)n1 (racemic) [compound 102, (±)-cis-N-[4-methyl-1-(propan-2-yl)pyrrolidin-3-yl]-4-(propan-2-yl)-1,3-oxazole-2-carboxamide] |
| > 50 | CC(C)N1C[C@@H](C)[C@H](NC(=O)c2cnc(C3CC3)o2)C1 (racemic) [compound 70, (±)-trans-2-cyclopropyl-N-[4-methyl-1-(propan-2-yl)pyrrolidin-3-yl]-1,3-oxazole-5-carboxamide] |
| > 50 | CC(C)N1C[C@H](C)[C@H](NC(=O)c2cc(C3CC3)[nH]n2)C1 (racemic) [compound 61, (±)-cis-5-cyclopropyl-N-[4-methyl-1-(propan-2-yl)pyrrolidin-3-yl]-1H-pyrazole-3-carboxamide] |
| > 50 | CC(C)N1C[C@H](C)[C@H](NC(=O)c2cncc(C3CC3)c2)C1 (racemic) [compound 90, (±)-cis-5-cyclopropyl-N-[4-methyl-1-(propan-2-yl)pyrrolidin-3-yl]pyridine-3-carboxamide] |
| 0.611 | CCN1C[C@H](C)[C@H](NC(=O)c2cc(C3CC3)cnn2)C1 (racemic) [compound 100, (±)-cis-5-cyclopropyl-N-(1-ethyl-4-methylpyrrolidin-3-yl)pyridazine-3-carboxamide] |

Same assay, conditions: Table 4; average of n = 1 to n = 50; read-out: SMYD2 Biochem IC50

| Molecule | IC50 [µM] |
| --- | --- |
| CC(C)c1cnnc(C(=O)N[C@@H]2CN(C(C)C)C[C@@H]2C)c1 (racemic) [compound 124, rac-5-isopropyl-N-((3R,4R)-1-isopropyl-4-methylpyrrolidin-3-yl)pyridazine-3-carboxamide] | 10.4 |
| C[C@H]1CN(S(=O)(=O)CCN)C[C@H]1NC(=O)c1cc(C2CC2)cnn1 (racemic) [compound 127, rac-N-((3R,4R)-1-((2-aminoethyl)sulfonyl)-4-methylpyrrolidin-3-yl)-5-cyclopropylpyridazine-3-carboxamide] | > 50 |
| CC(C)N1C[C@H](C)[C@H](NC(=O)c2cn(C3CC3)cn2)C1 (stereo in doubt) [compound 123, rac-1-cyclopropyl-N-((3R,4R)-1-isopropyl-4-methylpyrrolidin-3-yl)-1H-imidazole-4-carboxamide] | 2.2 |
| CC(C)N1CC(NC(=O)c2cc(C3CC3)cnn2)CC1C (centres unmarked) [compound 125, 5-cyclopropyl-N-(1-isopropyl-5-methylpyrrolidin-3-yl)pyridazine-3-carboxamide] | 11.5 |
| CC(C)N1C[C@H](CO)[C@H](NC(=O)c2cc(C3CC3)cnn2)C1 (racemic) [compound 129, rac-5-cyclopropyl-N-((3R,4R)-4-(hydroxymethyl)-1-isopropylpyrrolidin-3-yl)pyridazine-3-carboxamide] | 0.77 |
